Data: patent US6093723A, “4-substituted beta-carbolines and analogs thereof” (Boehringer Ingelheim Pharmaceuticals, Inc., priority 1997, dated 2000)

Key:
[1] = tested on: IL-2 production in CD3+/CD4+ cells; assay: IL-2 production assay, Protocol A (ionomycin and PMA as stimuli); format: cell-based; details: human CD3+/CD4+ cells, ionomycin 1 μg/ml and PMA 10 ng/ml, 16 hr
Procedure: Protocol A (ionomycin and […] as stimuli)
Human peripheral blood is obtained from healthy donors by venipuncture and the mononuclear cell fraction is prepared by centrifugation on Ficoll Hypaque (Phamacia) density gradients. Contaminating red blood cells are lysed and the CD3+/CD4+ cells are purified using immunoaffinity columns (R&D Systems or CellPro). The cells are resuspended and dispensed in 96 well microtiter plates. Test compounds are added to the cells approximately 15 minutes prior to stimulation with ionomycin (1 μg/ml) and PMA (10 ng/ml). The final volume of the assay is 100 μL. Following a 16 hr incubation at 37° C., the cells are pelleted by centrifugation, and the supernatants are collected and stored at -70° C. until assayed for IL-2 using a commercial ELISA kit (Genzyme).

[2] = tested on: Ca^+2 influx in Jurkat cells (clone E6-1); assay: Calcium influx assay (thapsigargin-stimulated, Fluo-3); format: cell-based; details: Homo sapiens; Jurkat cells clone E6-1, thapsigargin 100 nM, 10 min preincubation
Procedure: Jurkat cells (clone E6-1) are pelleted by centrifugation, washed twice, and resuspended in RPMI 1640 containing, […], 1 % fetal calf serum, 3 μM Fluo-3-AM, 13.5 μl/ml Pluronic F 127 (Molecular Probes) and incubated for 1 hour at 37° C. The loaded cells are washed twice in Hanks Balanced Salt Solution containing 10 mM HEPES. The cells are resuspended in HBSS containing 10 mM HEPES, and dispensed into 96-well Dynatech black microtiter plates at 2×10^5 cells/well. The cells are preincubated with compounds for 10 minutes at room temperature. Baseline fluorescence of unstimulated cells is measured using an SLT fluorescent microtiter plate reader with an excitation wavelength of 495 nm and emission wavelength of 538 nm. Thapsigargin is then added to a final concentration of 100 nM. Following a 5 minute incubation, fluorescence of thapsigargin treated cells is measured. Delta fluorescence values are determined by subtracting baseline fluorescence values from thapsigargin induced fluorescence values.

[3] = tested on: IL-2 production in T lymphocytes (CD3+/CD4+ cells); assay: IL-2 production assay, Protocol B (antiCD3/antiCD28 as stimuli); format: cell-based; details: T-lymphocyte; human T lymphocytes, anti-CD3/anti-CD28 and goat anti-mouse coated beads, 16 hour
Procedure: Protocol B (antiCD3/antiCD28 as stimuli)
Human peripheral blood is obtained from healthy donors by venipuncture and the mononuclear cell fraction is prepared by centrifugation on Ficoll Hypaque (Phamacia) density gradients. Contaminating red blood cells are lysed and the CD3+/CD4+ cells are purified using immunoaffinity columns (R&D Systems or CellPro). The T lymphocytes are plated at 1-1.5×10^5 cells/well in a 96 well microtiter plate, and incubated with serial dilutions of compounds for 20 minutes at 37° C. The T cells are activated by the addition of 0.6 ng/ml anti-CD3 (Immunotech), 500 ng/ml anti-CD28 (Biodesign) and 2×10^5 goat anti-mouse coated beads (Dynal). The final volume of the assay is 200 μl. Following a 16 hour incubation at 37° C., the cells are pelleted, and the supernatants are removed and collected and stored at -70° C. until assayed for interleukin-2 using a commercial ELISA kit (R&D Systems).

[4] = tested on: allogeneic cell transplant response (T-cell-mediated immune response, popliteal lymph node); assay: Allogeneic cell transplant response in mice (popliteal lymph node weight); format: in vivo, mice (DBA donors, C57B1/6 recipients); details: dosed one hour prior to cell injection and daily thereafter, ~four days
Source text: Allogeneic Cell Transplant Response in Mice
The ability of cells to recognize other cells from self or from another genetically different individual (non-self) is an important property in maintaining the integrity of tissue and organ structure. The allogeneic cell transplant response is therefore an important model for studies of transplant rejection. This T-cell-mediated immune response can be induced in adult mice by the injection of lymphocytes from an histoincompatible mouse strain. This response is characterized by T cell proliferation which is limited to the popliteal lymph node that receives drainage from the footpad area. No in vitro system exists that can exactly duplicate completely this in vivo response. The assay is commonly used to evaluate new and novel potential immunosuppressive molecules.
Experiments are conducted using male or female mice (20-26 grams). Any histoincompatible mouse strains suffice for donor and recipient populations. Typically DBA mice are used as donors and C57B1/6 mice are used as recipients. A minimum of 1 week stabilization and conditioning period is usually required before use of the mice. Each study utilizes approximately 36 recipient mice divided into groups of 6.
Donor mice are sacrificed by CO2 asphyxiation and spleens are removed and a cell suspension is prepared. The cell suspension (1.0×10^7/metatarsal in 0.05 ml) is injected I.D. into the dorsal metatarsal skin of recipient mice. Four days later, the animals are sacrificed by CO2 asphyxiation and the popliteal nodes are removed and weighed. Groups of mice receiving putative immunosuppressive agents are dosed subcutaneously,intraperitoneally or orally one hour prior to cell injection and daily thereafter. The tests last approximately four days. The assay involves no footpad swelling and only a moderate increase in the size of the popliteal lymph node. Student's t test is used to determine significant differences between popliteal lymph nodes of groups of untreated mice and those mice treated with putative immunosuppressive agents.

[5] = tested on: IL-2 promoter; assay: IL-2 promoter assay (luciferase reporter in Jurkat cells); format: cell-based; details: Homo sapiens; Jurkat luciferase reporter cells, ionomycin 1 μg/ml and PMA 10 ng/ml, 5 hr; read-out: IL-2 PROMOTER IC50
Source text: All the known regulatory features of IL-2 gene are contained within a ~300 bp sequence immediately upstream of the open reading frame. […] The resulting construct, pIL2P-luc, and a vector containing a neomycin resistance gene, pcDNA/Neo (Invitrogen), are linearized and stably transfected into Jurkat cells (a human T cell line) by electroporation.
For screening compounds, the cells are pelleted by centrifugation, washed once with PBS, resuspended in RPMI (phenol red-free) containing 5% FBS, and dispensed into 96-well, white microtiter plates (Packard) at 50,000 cells/well. The cells are pre-incubated with compounds (1 μg/ml) for 15 min prior to addition of ionomycin (1 μg/ml) and PMA (10 ng/ml) in a final volume of 100 μl. Following a 5 hr incubation at 37° C. in a humidified incubator, 100 μl of Luc-Lite lysis buffer/luciferase assay buffer (Promega) is added and luminescence measured using a Packard TopCount scintillation counter/luminometer.

SMILES | IC50 [1] [µM] | IC50 [2] [µM] | IC50 [3] [µM] | ALLOGENEIC CELL TRANSPLANT % ([4]; 1 mg/kg) [%] | IC50 [5] [µM] | ALLOGENEIC CELL TRANSPLANT % ([4]; 0.1 mg/kg) [%]
COc1ccc(-c2cncc3[nH]c4ccccc4c23)cc1 [Compound 5, 4-(p-Methoxyphenyl)-β-carboline] | 1 | 0.3 | 4.2 | 60 | 1.09 | –
FC(F)(F)c1ccc(-c2cncc3[nH]c4ccccc4c23)cc1 [Compound 4, 4-(p-Trifluoromethylphenyl)-β-carboline] | 0.3 | 0.5 | 3.4 | – | 0.23 | 38
